The values that follow are results of earlier work, collected in US7691423B2, “Method of treating inflammation disorders using extracts of passion fruit” (priority 2005, dated 2010).

Data set [1] has as its system vascular contraction.
Data set [2] concerns spontaneously hypertensive rat (SHR) cells. The conditions noted are these: SHR cells in vitro.
Data set [3] concerns iNOS.

Consider `O=c1ccc2cc(O)c(O)cc2o1` [esculetin], for which the “Large dose acetylcholine-induced vascular contraction” value in data set [1] is listed as “inhibited”.
As to `O=c1c(O)c(-c2ccc(O)cc2)oc2cc(O)cc(O)c12` [kaempferol], in data set [2], the “NOLA-dependent spontaneous aortic ring contraction” value is listed as “inhibit”. In addition, the “Large dose acetylcholine-induced vascular contraction” value in data set [1] was “inhibited”.
Regarding `O=c1c(O)c(-c2ccc(O)c(O)c2)oc2cc(O)cc(O)c12` [quercetin], the “NOLA-dependent spontaneous aortic ring contraction” value in data set [2] is “inhibit”. Moreover, the “Large dose acetylcholine-induced vascular contraction” value in data set [1] is reported as “inhibited”. Moreover, the “iNOS mRNA and the production of nitric oxide” value in data set [3] was “inhibit”.
